# Data from patent publication US20250327794A1, “FLUOROMETRIC METHODS FOR DETECTION OF ALLERGIC SENSITIVITY TO ENVIRONMENTAL, FOODSTUFF, AND MEDICAMENT STIMULANTS” (CELL SCIENCE SYSTEMS CORPORATION, priority 2022, published 2025).
# Columns and labels:
# Format in all cases: cell-based, human
# eosinophils = experiment: Eosinophil activation: RH 123 signal in CD193(+)/CD16(-) gated cells
# Source text: Activation of eosinophils from human blood samples following exposure to exogenous stimulants was investigated using flow cytometry analysis of RH 123 fluorescence, as well as cell surface markers CD16 and CD193, and side scattering profiles. CD193 (CCR3; Chemokine C—C motif receptor 3) is a surface marker expressed in eosinophils and basophils. FIGS. 23A-23C show density plots of CD193 fluorescence signal on channel 3 (FL3-A) for DHR 123 only (FIG. 23A), DHR 123+PMA stimulant (FIG. 23B), and DHR 123+DM stimulant (FIG. 23C) following exposure to stimulant for 1.5 hours. FIGS. 23D-23F show corresponding gated RH 123 results (MFI=32944, MFI=70320, and MFI=28522, respectively). FIGS. 24A-24C show density plots of CD193 fluorescent signals at channel 3 (FL3-A) for DHR 123 only (FIG. 24A), DHR 123+DM stimulant (FIG. 24B), and DHR 123+RWP stimulant (FIG. 24C) following exposure to stimulant for 2.5 hours. FIGS. 24D-24F show corresponding gated RH 123 results (FIG. 24D, DHR 123 only: MFI=10156; FIG. 24E, DHR 123+DM stimulant: MFI=19911, and […], DHR 123+RWP stimulant: MFI=17210).
# Eosinophil population was selected using CD193(+) and CD16(−) expression profiles (shown in FIGS. 23A-23C and […] as encircled). Eosinophil population was reduced in PMA stimulant, DM stimulant and RWP stimulant exposed groups. In addition, DHR 123 signals in gated eosinophils was higher than DHR 123 only control group after 2.5-hour incubation. Thus, it was concluded that eosinophils are activated by dust mite and ragweed pollen stimulants according to this method.
# white blood cells = experiment: Propidium iodide (PI) staining by flow cytometry, channel 3 FL3-A
# Method: Cell viability determination using DNA staining was incorporated to improve flow cytometry analysis of granulocyte subpopulations. […] Throughout Example 2, additional exogenous stimulants were tested for their ability to instigate granulocyte release of ROS.
# Flow cytometry analysis of human blood samples was performed following exposure to exogenous dust mite (“DM”) stimulant using time course measurements of RH 123 and PI fluorescence. Density plots and histograms were determined for samples containing: control cells only, DHR 123 only, DHR 123+PMA stimulant (positive control), DHR 123+DM stimulant, and DHR 123+3× DM stimulant, following incubation times of 0.5 hours (FIGS. 9A-9J), 1.5 hours (FIGS. 10A-10J), and 2.5 hours (FIGS. 11A-11J), respectively. Propidium iodide staining was used as a measure of cell viability.
# Flow cytometry analysis of human blood samples was performed following exposure to exogenous DM, ragweed pollen (RWP), milk (MLK), cucumber (CUC), and basil (BAS) stimulants using RH 123 and PI fluorescence measurement. Density plots and histograms were determined for samples containing: control cells, DHR 123 only, DHR 123+PMA stimulant, DHR 123+DM stimulant, DHR 123+RWP stimulant (1×: 2.5 μL; 2×: 5.0 μL), DHR 123+MLK stimulant (5 μL), DHR 123+CUC stimulant (5 μL), and DHR 123+BAS stimulant (5 μL), following an incubation times of 0.5, 1.5, and 2.5 hours. See RH 123 (FL1-A) density plots at FIGS. 13A-13H; RH 123 (FL1-A) histograms at FIGS. 14A-14H; propidium iodide (PI) (FL3-A) density plots at FIGS. 15A-15H; PI (FL3-A) histograms at FIGS. 16A-16H).
# DHR 123 and PI flow cytometry blood testing was repeated using increased amounts of stimulant (8 μL of DM stimulant or RWP stimulant per 100 μL blood) and incubated for 2.5 hours.
# granulocytes = experiment: Citrullinated histone H3 flow cytometry blood test (extracellular trap formation)
# Source text: Detection of extracellular traps formation was incorporated to improve flow cytometry analysis of granulocyte subpopulations. […] This example describes detection of granulocyte activation following exposure of human blood to exogenous stimulant, using dihydrorhodamine 123, propidium iodide, and citrullinated histone H3 staining.
# Peripheral blood samples were collected, diluted, maintained, treated, lysed, and fixed as previously described. Samples were blocked as previously described and incubated with staining buffer containing a 1:400 dilution of Cit-H3 antibody (Cayman Chemical, Michigan, USA) for 30 min at RT. Following two wash steps, the samples were incubated with APC-conjugated secondary (1:200) (Columbia Biosciences, Maryland, USA) for 30 min and subsequent washing steps were performed to remove unbound antibodies. Cells were washed twice and resuspended in PBS prior to analysis using a BD Accuri C6 Flow Cytometer (BD Biosciences). Statistical analysis was performed using the FlowJo v10 (FlowJo). NETs were defined by the in-tandem use of the classis extracellular DNA/viability marker PI(+) and the extracellular trap marker Cit-H3(+). NET formation was quantified as a fold-change relative to the mean of the negative control samples.
# basophils = experiment: Basophil activation: RH 123 signal in CD123(+)/CD16(-) gated cells
# Source text: Activation of basophils from human blood samples following exposure to exogenous stimulants was investigated using flow cytometry analysis of RH 123 fluorescence, as well as cell surface markers CD16 and CD193, and side scattering profiles. CD123 is a cell surface marker that is expressed on basophils and eosinophils. FIGS. 25A-25C show density plots of CD123 signals at channel 4 (FL4-A) for DHR 123 only (FIG. 25A), DHR 123+PMA stimulant (FIG. 25B), and DHR 123+DM stimulant exposed group (FIG. 25C) following exposure to stimulant for 1.5 hours. FIGS. 25D-25F show corresponding gated RH 123 results (MFI=2055, MFI=6388, and MFI=3023, respectively). FIGS. 26A-26C show density plots of CD123 signals at channel 4 (FL4-A) for DHR 123 control group (FIG. 26A), DHR 123 and dust mite stimulant-exposed group (FIG. 26B), and DHR 123 and ragweed pollen stimulant-exposed group (FIG. 26C) following exposure to stimulant for 2.5 hours. FIGS. 26D-26F show corresponding gated RH 123 results (MFI=1800, MFI=3299, and MFI=1270, respectively).
# Basophil population was selected by having CD123(+)/CD16(−) expression profiles, along with lower side scattering (shown in FIGS. 25A-25C and FIGS. 26A-26C as encircled). In contrast to reducing eosinophil population for different allergen treated groups, basophil population appeared stable over the experiment time period (1.5 hours and 2.5 hours).
# [1] = 1-3 hr incubation, DHR 123 and PMA
smiles,measurement,setting,value
"CCCCCCCCCCCCCC(=O)O[C@@H]1[C@@H](C)[C@@]2(O)[C@@H](C=C(CO)C[C@]3(O)C(=O)C(C)=C[C@@H]23)[C@@H]2C(C)(C)[C@]12OC(C)=O [PMA, Phorbol-12-Myristate-13-Acetate]",CD193 signal over incubation time,eosinophils; [1],decreased
same,"gated RH 123 signal MFI, CD193 gated","eosinophils; 1.5 hours exposure, DHR 123 only control MFI=32944",70320
same,eosinophil population (in words),eosinophils; CD193(+) and CD16(−) population in stimulant exposed groups,reduced
same,MFI (2.5 h) FL3-A,white blood cells; PMA or DM 2 μL/100 μL blood (Table 4),"17,902.33"
same,Mean FL3-A (2.5 h),"white blood cells; PMA, RWP1 2.5 μL, MLK, CUC, BAS 5 μL per 100 μL blood (Table 6)","34,645.62"
same,MFI (2.5 h) FL3-A,"white blood cells; increased stimulant, 8 μL DM or RWP per 100 μL blood (Table 7)","11,914.00"
same,RH 123 (FL1-A) and PI (FL3-A) fluorescence signal compared with cell-only group,granulocytes,higher
same,percentage cells positive for citrullinated histone H3 signals,granulocytes; after gating on FL3-A and FL4-A,high
same,"PI staining signal (channel 3, FL3-A)","granulocytes; repeat, 8 μL stimulant/100 μL blood",stronger signals
same,CD123 signal over incubation time,basophils; [1],decreased
same,"gated RH 123 signal MFI, CD123 gated","basophils; 1.5 hours exposure, DHR 123 only control MFI=2055",6388
same,basophil activation (in words),basophils; RH 123 signal vs DHR 123 only control,induced the activation of basophils
